Test results taken from patent US20140370129A1, “DOSING REGIMEN AND METHOD FOR TREATING CANCER USING A COIX SEED OIL EMULSION” (Zhejiang Kanglaite Group Co., Ltd., priority 2013, published 2014).

Legend:
[1] = test system: advanced or metastatic adenocarcinoma of the pancreas; conditions: first-line therapy; P=0.003; cited from earlier work
[2] = test system: metastatic pancreatic adenocarcinoma; conditions: not previously treated with chemotherapy; cited from earlier work
[3] = test system: advanced or metastatic pancreatic carcinomas; conditions: erlotinib versus placebo, with gemcitabine; cited from earlier work
[4] = test system: locally advanced or metastatic pancreatic cancer; assay: Phase 2b study of Kanglaite Injection plus gemcitabine vs gemcitabine alone; assay type: in vivo
Source text: Efficacy of the treatment may be monitored, for example, by CT scans of the patients to determine growth or progression of the tumor, or Karnofsky performance. The Karnofsky Performance Scale Index allows patients to be classified on a scale of 0 to 100 as to their functional impairment, with zero indicating death and 100 indicating no patient complaints and no evidence of disease. The primary efficacy outcome measure for the efficacy trial described in Example 2 was Progression Free Survival (PFS). PFS includes patient deaths and assumes that death is related to progression of cancer, a reasonable assumption with pancreatic cancer. PFS is defined as the time interval from randomization to objective tumor progression or death.
As shown in Example 2, efficacy of the treatment was evaluated in part using RECIST 1.1 RECIST refers to the Response Evaluation Criteria for Solid Tumors assessment tool an involves measuring tumors (lesions) in patient using, for example, CT or MRI. As noted above, RECIST Version 1.1 was utilized in evaluating patient responses.
A phase 2b, multi-center, randomized, open-label clinical trial compared the effect of gemcitabine in combination with KLTi to gemcitabine alone in patients with locally advanced or metastatic pancreatic cancer, not amenable to curative surgical resection.
A total of 41 patients were randomized to Cohort 1 with 38 included in the safety population, specifying all patients who received at least one dose of study drug. Thirty-seven of the 38 patients had been diagnosed as having Stage IV pancreatic cancer. Twenty-six patients were assigned to Group 1 to receive both KLTi and gemcitabine while 12 patients were assigned to Group 2 to receive only gemcitabine.
All patients received marketed gemcitabine, which was administered at 1000 mg/m^2 over a minimum of 30 min and a maximum of 38 min once weekly for 3 weeks, followed by a rest period of 13 days before the next gemcitabine dose. Based on a chemotherapy cycle of 28 days (4 weeks), gemcitabine was given on Days 1, 8, and 15 of the 28-day cycle. For patients in Group 1, KLTi infusion was administered on each of Days 1-5 for each of those same 3 weeks (i.e., Days 1-5, Days 8-12 and Days 15-19). Patients were then rested for the remaining 9 days of the cycle (Days 20-28).
Dosing of Group 1 patients included administration of KLTi at a dose of 30 g/day provided as a 300 mL volume. For the first 2 KLTi infusions for each patient, the infusion rate was started at 1.0 mL/min for the first 15 min, and then increased to 150 mL/hr until the KLTi was completely infused if no safety issues were apparent. Once safety was established in the first 2 infusions, all subsequent KLTi infusions were given at a target rate of 150 m L/hr. Beginning with cycle 2, the target rate of infusion may, however, have been increased to […]. The total infusion time for 300 mL of KLTi was therefore expected to be approximately 2 hr for Cycle 1 and approximately 90 min for all remaining cycles.
Progression Free Survival (PFS) was calculated from the date of randomization to the date of objective disease progression or death. Patients without objective disease progression or death were censored at their last evaluable tumor assessment. […] This significant increase in PFS in Group 1 as compared to Group 2 is indicative of the significant advantage of administering KLTi in combination to gemcidabine as compared to administering gemcidabine alone to treat pancreatic cancer.

pancreatic cancer = conditions: human, in vivo; cited from earlier work
[5] = RECIST 1.1, Efficacy Evaluable Population, n (%)
[6] = RECIST 1.1, Intent To Treat Population, n (%)

Structure (SMILES) | 1-year survival [1] [%] | median overall survival [2] [months] | 1-year survival rate [3] [%] | median survival [3] [months] | PFS Rate 1 month ([4]; 1 month) [%] | PFS Rate 1 year ([4]; 1 year) [%] | PFS Rate 3 months ([4]; 3 months) [%] | PFS Rate 4 months ([4]; 4 months) [%] | PFS Rate 6 months ([4]; 6 months) [%] | Median PFS ([4]; Progression Free Survival, randomization to objective progression or death, KLTi 30 g/day IV Days 1-5, 8-12, 15-19 with gemcitabine 1000 mg/m^2 Days 1, 8, 15 of 28-day cycle) [days] | CR + PR (%) [4, 5] | Complete Response (CR) [4, 5] | Partial Response (PR) [4, 5] | Progressive Disease (PD) [4, 5] | Complete Response (CR) [4, 6] | Partial Response (PR) [4, 6] | Progressive Disease (PD) [4, 6] | alive at the end of the first year (pancreatic cancer) [%]
O=c1[nH]cc(F)c(=O)[nH]1 [5-FU, fluorouracil] | 2 |  |  |  |  |  |  |  |  |  |  |  |  |  |  |  |  | 
Nc1ccn([C@@H]2O[C@H](CO)[C@@H](O)C2(F)F)c(=O)n1 [Gemcidabine, gemcitabine] | 18 | 6.8 | 17 | 5.9 | 75 | 8.3 | 25 | 25 | 8.3 | 57.5 | 1 (11.1%) | 0 (0%) | 1 (11.1%) | 6 (66.7%) | 0 (0%) | 1 (7.7%) | 6 (46.2%) | 22
